The target in assay [1] is Mcl-1 protein (Homo sapiens, UniProt Q07820). Briefly: Inhibition of Mcl-1 by the fluorescence polarisation technique. It counts as binding. The following applies: for IC50: Method 1 (not underlined) or Method 2 (underlined), underlining not visible, first value where cell prints two, read-out: IC50 (M) Mcl-1 FP. An outline of the steps:
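Competitive FP with fluorescein-labelled peptide ligand, 5% DMSO, ~2 h at room temperature, 11-point curves, 4-parameter IC50. Method 1: 1 nM ligand, 5 nM Mcl-1 in HEPES pH 7.4 buffer; Method 2: 10 nM ligand, 10 nM Mcl-1 in phosphate pH 7.4 buffer, 50 μM unlabelled ligand as full-inhibition control.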
For orientation: Fluorescence polarisation rises when a labelled molecule tumbles more slowly, as on binding a larger partner.

The subject of assay [2] is H929 multiple myeloma tumour line. The experiment in a line: In vitro cytotoxicity, Microculture Tetrazolium Assay on H929 cells. Format: cell-based. The following applies: cell viability, read-out: IC50 (M) MTT H929. Here is the method:
The cytotoxicity studies were carried out on the H929 multiple myeloma tumour line.
The cells are distributed onto microplates and exposed to the test compounds for 48 hours. The cell viability is then quantified by a colorimetric assay, the Microculture Tetrazolium Assay (Cancer Res., 1987, 47, 939-942).

Where [3] appears, read: Homo sapiens, NCI-H929, exposed for 48 hours.

Where two headings read alike, the source gives them in different places.

For orientation: IC50 means the midpoint of a concentration-inhibition curve.

Sequence of Mcl-1 protein (Q07820 whole entry): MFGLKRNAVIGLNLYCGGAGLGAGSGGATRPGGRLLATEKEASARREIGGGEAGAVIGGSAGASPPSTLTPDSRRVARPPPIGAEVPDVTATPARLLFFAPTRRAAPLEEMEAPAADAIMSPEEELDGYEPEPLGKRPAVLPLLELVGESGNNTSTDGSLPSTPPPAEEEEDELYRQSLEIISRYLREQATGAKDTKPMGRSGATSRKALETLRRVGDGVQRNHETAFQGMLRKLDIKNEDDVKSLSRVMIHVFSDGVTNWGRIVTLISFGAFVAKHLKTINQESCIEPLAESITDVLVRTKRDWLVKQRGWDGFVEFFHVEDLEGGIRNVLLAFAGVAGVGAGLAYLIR

With `COc1ccccc1-c1nccc(COc2ccccc2CC(Oc2ccnc3sc(-c4ccc(F)cc4)c(-c4ccc(OCCN5CCN(C)CC5)c(Cl)c4C)c23)C(=O)O)n1` [Example 71, (2R)-2-{[(3Sa)-3-{3-chloro-2-methyl-4-[2-(4-methylpiperazin-1-yl)ethoxy]phenyl}-2-(4-fluorophenyl)thieno[2,3-b]pyridin-4-yl]oxy}-3-(2-{[2-(2-methoxyphenyl)pyrimidin-4-yl]methoxy}phenyl)propanoic acid], the IC50 in assay [1] is 5.02e-09 M; in assay [2] (setting [3]) it was 9.08e-09 M.

With `COc1ccccc1-c1nccc(COc2ccccc2CC(Oc2ccnc3sc(-c4ccc(F)cc4)c(-c4ccc(OCCN5CCN(C)CC5)c(Cl)c4C)c23)C(=O)OC(C)OC(=O)N(C)C)n1` [Example 75, 1-[(dimethylcarbamoyl)oxy]ethyl (2R)-2-{[(3Sa)-3-{3-chloro-2-methyl-4-[2-(4-methylpiperazin-1-yl)ethoxy]phenyl}-2-(4-fluorophenyl)thieno[2,3-b]pyridin-4-yl]oxy}-3-(2-{[2-(2-methoxyphenyl)pyrimidin-4-yl]methoxy}phenyl)propanoate], the results for the IC50 in assay [1] and in assay [2] (setting [3]) were 5.61e-07 M and 7.55e-08 M, respectively.

On to `CCOC(=O)OC(C)OC(=O)C(Cc1ccccc1OCc1ccnc(-c2ccccc2OC)n1)Oc1ccnc2sc(-c3ccc(F)cc3)c(-c3ccc(OCCN4CCN(C)CC4)c(Cl)c3C)c12` [Example 76, 1-[(ethoxycarbonyl)oxy]ethyl (2R)-2-{[(3Sa)-3-{3-chloro-2-methyl-4-[2-(4-methylpiperazin-1-yl)ethoxy]phenyl}-2-(4-fluorophenyl)thieno[2,3-b]pyridin-4-yl]oxy}-3-(2-{[2-(2-methoxyphenyl)pyrimidin-4-yl]methoxy}phenyl)propanoate], for which the IC50 in assay [1] worked out at 1.34e-07 M; in assay [2] (setting [3]), 1.01e-08 M.

With `COc1ccccc1-c1nccc(COc2ccccc2C[C@@H](Nc2ccnc3sc(-c4ccc(F)cc4)c(-c4ccc(OCCN5CCN(C)CC5)c(Cl)c4C)c23)C(=O)O)n1` [Example 84, N-[3-{3-chloro-2-methyl-4-[2-(4-methylpiperazin-1-yl)ethoxy]phenyl}-2-(4-fluorophenyl)thieno[2,3-b]pyridin-4-yl]-2-{[2-(2-methoxyphenyl)pyrimidin-4-yl]methoxy}-D-phenylalanine], the IC50 in assay [1] amounted to 5.45e-09 M; in assay [2] (setting [3]), 1.09e-08 M.

As for `COc1ccccc1-c1nccc(COc2ccccc2C[C@@H](Nc2nccc3sc(-c4ccc(F)cc4)c(-c4ccc(OCCN5CCN(C)CC5)c(Cl)c4C)c23)C(=O)O)n1` [Example 86, N-[3-{3-chloro-2-methyl-4-[2-(4-methylpiperazin-1-yl)ethoxy]phenyl}-2-(4-fluorophenyl)thieno[3,2-c]pyridin-4-yl]-2-{[2-(2-methoxyphenyl)pyrimidin-4-yl]methoxy}phenylalanine], the IC50 in assay [1] came to 3.05e-08 M; in assay [2] (setting [3]), 3.59e-08 M.

Consider `COc1ccccc1-c1nccc(COc2ccccc2CC(Oc2nccc3nc(-c4ccc(F)cc4)c(-c4ccc(OCCN5CCN(C)CC5)c(Cl)c4C)n23)C(=O)O)n1` (centres unmarked) [Example 97a, 2-{[(3Sa)-3-{3-chloro-2-methyl-4-[2-(4-methylpiperazin-1-yl)ethoxy]phenyl}-2-(4-fluorophenyl)imidazo[1,2-c]pyrimidin-5-yl]oxy}-3-(2-{[2-(2-methoxyphenyl)pyrimidin-4-yl]methoxy}phenyl)propanoic acid], for which, in assay [1] (@ 10 μM test compound, partial inhibitors), the “percentage fluorescence polarization inhibition” value was 55% @ 10 μM. Also, the 50% inhibitory concentration (IC50) in assay [2] (exposed for 48 hours) stood at 1.16e-05 M.

In the case of `COc1ccccc1-c1nccc(COc2ccccc2CC(Oc2nccc3nc(-c4ccc(F)cc4)c(-c4ccc(OCCN5CCN(C)CC5)c(Cl)c4C)n23)C(=O)O)n1` (centres unmarked) [Example 97b, 2-{[(3Ra)-3-{3-chloro-2-methyl-4-[2-(4-methylpiperazin-1-yl)ethoxy]phenyl}-2-(4-fluorophenyl)imidazo[1,2-c]pyrimidin-5-yl]oxy}-3-(2-{[2-(2-methoxyphenyl)pyrimidin-4-yl]methoxy}phenyl)propanoic acid], the IC50 in assay [1] stood at 4.1e-08 M; in assay [2] (setting [3]), 4.59e-07 M.

(Values after US10323041B2, “Bicyclic derivatives, a process for their preparation and pharmaceutical compositions containing them” (LES LABORATOIRES SERVIER, priority 2015, dated 2019).)
